Experimental data from patent US20250170082A1, “HPDL INHIBITORS AND USES THEREOF” (NEW YORK UNIVERSITY, priority 2022, published 2025).
“Also recorded” adds a separate entry of the source.

Legend:
[1] = tested on: cells; assay: Cellular uptake of 4-HMA and incorporation into CoQ10; type: cell-based
[2] = tested on: MIAPACA2 and PATU-8902 cells; assay: 3D growth assay (CyQUANT) in MIAPACA2 and PATU-8902 cells; type: cell-based; conditions: 3 days
Procedure: (§1) 2,500 cells were seeded into a low-attachment 96-well plate containing DMEM+10% dialysed FBS and 3% Matrigel. […] To measure 3D growth with the CyQUANT Cell Proliferation Assay kit, plates were frozen at −80° C., thawed at room temperature, and equal volumes of 2× CyQUANT reagent+lysis buffer was added to the wells. As a control, wells containing medium and no cells were used as blanks. CyQUANT measurements were performed as described in the manufacturer's instructions.
as §1, with “2×CyQUANT” for “2× CyQUANT”, “Wells” for “As a control, wells”, “blanks.” for “blanks. CyQUANT measurements were performed as described in the manufacturer's instructions.”

[3] = tested on: MIAPACA2 and PATU8902 xenografts; assay: PDAC pancreas orthotopic xenografts in athymic nude mice; type: in vivo
Procedure: Pancreas orthotopic xenografts were established as follows. In brief, 6-week-old female immunocompromised athymic nude mice (CrTac:NCr-Foxnlnu) were orthotopically injected with tumor cells into the pancreas. Mice were anaesthetized with ketamine (120 mg kg−1) and xylazine (10 mg kg−1) before surgery. MIAPACA2 or PATU-8902 ([…]) were suspended in 20 μl of 50% growth factor-reduced Matrigel (BD Science), and injected into the pancreas. Mice were treated with buprenorphine every 12 h after surgery for 48 h. […] Both compounds were dissolved into mice water every day to avoid degradation. Mice were sacrificed when tumor development led to significant deterioration of their condition.

[4] = tested on: C57BL/6 pups; assay: Pup survival after daily oral gavage; type: in vivo
[5] = target: T1, human His-tagged HPDL (4-hydroxyphenylpyruvate dioxygenase-like), recombinant, from expiSF9 insect cells (Homo sapiens, UniProt Q96IR7); assay: Inhibition of HPDL activity: His-tagged HPDL incubated with HPPA at various inhibitor concentrations, 4HMA production followed by GC-MS; type: biochemical
T1 construct: His tag; made in house; host or cells: expiSF9 insect cells (virus infection)
T1 sequence (Q96IR7 1-371): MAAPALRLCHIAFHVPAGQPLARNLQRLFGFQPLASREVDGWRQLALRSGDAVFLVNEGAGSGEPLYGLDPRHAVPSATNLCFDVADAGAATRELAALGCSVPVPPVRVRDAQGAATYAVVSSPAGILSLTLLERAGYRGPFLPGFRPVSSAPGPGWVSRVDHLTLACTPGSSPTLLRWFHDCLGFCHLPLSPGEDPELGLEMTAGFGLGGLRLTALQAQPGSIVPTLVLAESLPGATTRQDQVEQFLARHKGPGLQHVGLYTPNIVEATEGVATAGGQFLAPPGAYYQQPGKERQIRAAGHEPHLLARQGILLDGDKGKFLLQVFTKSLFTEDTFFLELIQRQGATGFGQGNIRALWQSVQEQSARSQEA
Excerpt: The four curves in Panel (A) represent dose-response curves for, from left to right, ibuprofen, dopamine, montelukast, and methyldopa, respectively.
A culture of expiSF9 cells (5×10^6 viable cells/mL and ≥90% viability) were infected with high-titer virus (human His-tagged HPDL).

[6] = target: T2, HPDL (Homo sapiens, UniProt Q96IR7); assay: Fluorescence based thermal shift assay (FTS) on purified HPDL; type: binding; conditions: 10 μM compound, 1 μM HPDL
T2 construct: His tag; made in house; host or cells: expiSF9 insect cells (inferred: the only HPDL preparation described)
T2 sequence (Q96IR7 1-371): T1 sequence (Q96IR7 1-371)
Procedure: This experiment evaluates an FDA approved library of small molecules by thermal shift in order to identify binders of HPDL. Fluorescence based thermal shift assay (FTS) was conducted on Bio-Rad real time PCR detection system. A total of 20 μL/well solution was prepared containing 1 μM HPDL, 2× fluorescent dye (Applied Biosystems, Life Technologies) and small molecules at […] concentration in buffer (50 mM HEPES pH 7.5 and 20 μM FeSO4). The plate was heated at 1% of ramp rate (−1.5° C./min) from 25 to 95° C., and Rox was selected as reporter for detection of fluorescence intensity. The melting temperature was recorded for every compound and compared to the reference HPDL melting temperature.
This experiment evaluates if COX inhibition is responsible for the decrease of cell growth in 3D. The ability of aspirin, another COX inhibitor, to bind HPDL was evaluated using thermal shift assay. Fluorescence based thermal shift assay (FTS) was conducted on Bio-Rad real time PCR detection system. […] The plate was heated at 1% of ramp rate (˜1.5° C./min) from 25 to 95° C., and Rox was selected as reporter for detection of fluorescence intensity. The melting temperature was recorded for every compound and compared to the reference HPDL melting temperature.

[7] = tested on: MIAPACA2 cells; assay: 3D growth assay (CyQUANT) in MIAPACA2 cells, ibuprofen vs aspirin; type: cell-based; conditions: 100 uM added daily, 3 days
Procedure: (§2) This experiment evaluates if COX inhibition is responsible for the decrease of cell growth in 3D. The ability of aspirin, another COX inhibitor, to affect cell growth of HPDL-dependent cell lines in 3D was evaluated. 2,500 cells were seeded into a low-attachment 96-well plate containing DMEM+10% dialysed FBS and 3% Matrigel. […] To measure 3D growth with the CyQUANT Cell Proliferation Assay kit, plates were frozen at −80° C., thawed at room temperature, and equal volumes of 2× CyQUANT reagent+lysis buffer was added to the wells. Wells containing medium and no cells were used as blanks.

[8] = target: T3, His-tagged HPDL (Homo sapiens, UniProt Q96IR7); conditions: for compound amount at 50% activity level (rank among the four dose-response curves): FIG. 4(A) dose-response curves
T3 sequence (Q96IR7 1-371): T1 sequence (Q96IR7 1-371)

[9] = tested on: MIAPACA2 expressing control or HPDL sgRNA; assay: 3D growth assay in MIAPACA2 expressing control or HPDL sgRNA, with or without coHPDL; type: cell-based; conditions: ibuprofen 100 uM added daily, 3 days
Procedure: as §2, with “HPDL” for “COX”, “inhibition in cells” for “inhibition”, “The ability of aspirin, another COX inhibitor, to affect cell growth of HPDL-dependent cell lines in 3D was evaluated.” left out

SMILES: O=C(O)C(O)c1ccc(O)cc1 (stereo not drawn) [4HMA, 4-hydroxymandelate]
- uptake by cells and incorporation into CoQ10 [1]: readily taken up by cells and incorporated into CoQ10
- rescue of ibuprofen-induced decrease of 3D cell growth ([2]; ibuprofen 100 uM and 4HMA 1 mM added daily): rescues ibuprofen-induced decreases cell growth in 3D
- rescue of ibuprofen-induced decrease of xenograft growth ([3]; 4HMA 10 mg/kg with ibuprofen 100 mg/kg in drinking water): can rescue this decrease
- rescue of ibuprofen-induced lethality ([4]; 4HMA 10 mg/kg with ibuprofen 200 mg/kg daily oral gavage): rescues ibuprofen-induced lethality in pups

SMILES: CC(C)(O)c1ccccc1CC[C@@H](SCC1(CC(=O)O)CC1)c1cccc(/C=C/c2ccc3ccc(Cl)cc3n2)c1 [D00005 row 1, montelukast]
- IC50 [5]: > 100 µM

SMILES: NCCc1ccc(O)c(O)c1 [D00005 row 2, dopamine]
- IC50 [5]: 41.3 µM

SMILES: C[C@](N)(Cc1ccc(O)c(O)c1)C(=O)O [D00005 row 3, methyldopa]
- IC50 [5]: > 100 µM

SMILES: CC(C)Cc1ccc(C(C)C(=O)O)cc1 (stereo not drawn) [D00005 row 4, ibuprofen]
- IC50 [5]: 16.6 µM

SMILES: CC(=O)Oc1ccccc1C(=O)O [aspirin]
- HPDL binding by thermal shift [6]: does not act HPDL binder
- 3D cell growth [7]: does not affect cell growth of HPDL-dependent cell lines

SMILES: NCCc1ccc(O)c(O)c1 [dopamine]
- inhibition of HPDL activity ([8]; 12 ng/μL HPDL, 10 μM HPPA, 1 h at 37° C., various inhibitor concentrations): inhibit the dioxygenase HPDL
- compound amount at 50% activity level (rank among the four dose-response curves) [8]: second least

SMILES: CC(C)Cc1ccc(C(C)C(=O)O)cc1 (stereo not drawn) [ibuprofen]
- compound amount at 50% activity level (rank among the four dose-response curves) [8]: least
- 3D cell growth ([2]; ibuprofen 100 uM added daily): selectively decreases cell growth of HPDL-dependent cell lines in 3D
- 3D cell growth [7]: affects cell growth of HPDL-dependent cell lines in 3D
- orthotopic pancreatic tumor growth (tumor weight) ([3]; ibuprofen 100 mg/kg in drinking water): affects the growth of HPDL-dependent PDAC orthotopic xenografts
- sensitivity of 3D growth to ibuprofen on HPDL deletion [9]: HPDL deletion reduces sensitivity to ibuprofen treatment in 3D
- pup development and survival ([4]; ibuprofen 200 mg/kg daily oral gavage, started at 3, 5 and 10 days): affects the development of pups; also recorded: ibuprofen-induced lethality in pups
